Reference: PubChem BioAssay AID248 (DTP/NCI, 2004)
Where “and” joins values, the source holds several entries; their conditions need not be identical. Equal entries are not always repeated. Inconclusive results and toxic doses are left out. Rule as the data show it: active = T/C of 150% or more; inactive = T/C below 125%.

System: L1210 leukemia ip in BDF1 mice, survival T/C
Assay: NCI In Vivo Anticancer Drug Screen. Data for tumor model L1210 Leukemia (intraperitoneal) in B6D2F1 (BDF1) mice
Conditions: higher = longer survival
Method in brief: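 Survival endpoint. Drug-treated group vs vehicle group, expressed as T divided by C. Tumor passaged by transplantation.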

[1] = endpoint: mean survival time, dose: 100.0 mg/kg/injection, schedule: Q04DX003 (ip), vehicle: Klucel (hydroxypropylcellulose) (HPC)
[2] = endpoint: mean survival time, dose: 200.0 mg/kg/injection, schedule: Q04DX003 (ip), vehicle: Klucel (hydroxypropylcellulose) (HPC)
[3] = endpoint: mean survival time, dose: 400.0 mg/kg/injection, schedule: Q04DX003 (ip), vehicle: Klucel (hydroxypropylcellulose) (HPC)
[4] = endpoint: mean survival time, dose: 100.0 mg/kg/injection, schedule: Q01DX001 (ip), vehicle: saline
[5] = endpoint: mean survival time, dose: 200.0 mg/kg/injection, schedule: Q01DX001 (ip), vehicle: saline
[6] = endpoint: mean survival time, dose: 400.0 mg/kg/injection, schedule: Q01DX001 (ip), vehicle: saline
[7] = endpoint: mean survival time, dose: 100.0 mg/kg/injection, schedule: Q01DX001 (ip), vehicle: carboxymethylcellulose (CMC)
[8] = endpoint: mean survival time, dose: 200.0 mg/kg/injection, schedule: Q01DX001 (ip), vehicle: carboxymethylcellulose (CMC)

Measured: T/C

NC(=S)NN=C1CSSC1
inactive: endpoint: mean survival time, dose: 1.56 mg/kg/injection, schedule: Q01DX009 (ip), vehicle: water 99 % of control | endpoint: mean survival time, dose: 3.12 mg/kg/injection, schedule: Q01DX009 (ip), vehicle: water 96 % of control | endpoint: mean survival time, dose: 6.25 mg/kg/injection, schedule: Q01DX009 (ip), vehicle: water 99 % of control | endpoint: mean survival time, dose: 12.5 mg/kg/injection, schedule: Q01DX009 (ip), vehicle: water 103 % of control | endpoint: mean survival time, dose: 12.5 mg/kg/injection, schedule: Q04DX003 (ip), vehicle: water 95 % of control | endpoint: mean survival time, dose: 25.0 mg/kg/injection, schedule: Q01DX009 (ip), vehicle: water 103 % of control

CCCCN(CCCC)CC(O)c1cc(-c2ccccc2)nc2c(N)cccc12 (stereo unspecified)
inactive: endpoint: mean survival time, dose: 75.0 mg/kg/injection, schedule: Q01DX001 (ip), vehicle: saline 98 % of control | endpoint: mean survival time, dose: 150.0 mg/kg/injection, schedule: Q01DX001 (ip), vehicle: saline 100 % of control | endpoint: mean survival time, dose: 300.0 mg/kg/injection, schedule: Q01DX001 (ip), vehicle: saline 96 % of control

CCCCCCCCN(C)N=Nc1ccccc1C(=O)O
inactive: endpoint: mean survival time, dose: 12.5 mg/kg/injection, schedule: Q01DX009 (ip), vehicle: Klucel (hydroxypropylcellulose) (HPC) 109 % of control | endpoint: mean survival time, dose: 12.5 mg/kg/injection, schedule: Q04DX003 (ip), vehicle: Klucel (hydroxypropylcellulose) (HPC) 102 % of control | endpoint: mean survival time, dose: 25.0 mg/kg/injection, schedule: Q01DX009 (ip), vehicle: Klucel (hydroxypropylcellulose) (HPC) 106 % of control and 116 % of control | endpoint: mean survival time, dose: 25.0 mg/kg/injection, schedule: Q04DX003 (ip), vehicle: Klucel (hydroxypropylcellulose) (HPC) 95 % of control | endpoint: mean survival time, dose: 50.0 mg/kg/injection, schedule: Q01DX009 (ip), vehicle: Klucel (hydroxypropylcellulose) (HPC) 122 % of control | endpoint: mean survival time, dose: 50.0 mg/kg/injection, schedule: Q04DX003 (ip), vehicle: Klucel (hydroxypropylcellulose) (HPC) 108 % of control | endpoint: mean survival time, dose: 60.0 mg/kg/injection, schedule: Q01DX009 (ip), vehicle: Klucel (hydroxypropylcellulose) (HPC) 122 % of control | [1] 114 % of control | endpoint: mean survival time, dose: 200.0 mg/kg/injection, schedule: Q01DX009 (ip), vehicle: Klucel (hydroxypropylcellulose) (HPC) 114 % of control | endpoint: mean survival time, dose: 400.0 mg/kg/injection, schedule: Q01DX009 (ip), vehicle: Klucel (hydroxypropylcellulose) (HPC) 92 % of control

O=[N+]([O-])c1cc(Br)cc2c1nc(NCCCO)c1ccccc12
inactive: [1] 103 % of control | [2] 109 % of control | [3] 109 % of control

O=c1oc2cc(O)ccc2c2ccccc12
inactive: [1] 98 % of control | [2] 96 % of control | [3] 102 % of control

CCOC(OCC)n1ncnc1NC(=S)NCc1ccccc1
inactive: endpoint: mean survival time, dose: 50.0 mg/kg/injection, schedule: Q04DX003 (ip), vehicle: saline 100 % of control | endpoint: mean survival time, dose: 100.0 mg/kg/injection, schedule: Q04DX003 (ip), vehicle: saline 100 % of control | endpoint: mean survival time, dose: 200.0 mg/kg/injection, schedule: Q04DX003 (ip), vehicle: saline 97 % of control

CS(C)=O
inactive: [4] 112 % of control | [5] 102 % of control | [6] 106 % of control | endpoint: mean survival time, dose: 1500.0 mg/kg/injection, schedule: Q01DX Z (ip), vehicle: other 98 % of control | endpoint: mean survival time, dose: 1.6 grams/kg/injection, schedule: Q03HX008 (ip), vehicle: saline 97 % of control | endpoint: mean survival time, dose: 1.6 grams/kg/injection, schedule: Q03HX016 (ip), vehicle: saline 101 % of control | endpoint: mean survival time, dose: 1.6 grams/kg/injection, schedule: Q03HX024 (ip), vehicle: saline 105 % of control | endpoint: mean survival time, dose: 3000.0 mg/kg/injection, schedule: Q01DX Z (ip), vehicle: other 98 % of control | endpoint: mean survival time, dose: 3.1 grams/kg/injection, schedule: Q01DX001 (ip), vehicle: saline 104 % of control | endpoint: mean survival time, dose: 3.1 grams/kg/injection, schedule: Q01DX009 (ip), vehicle: saline 100 % of control | endpoint: mean survival time, dose: 3.1 grams/kg/injection, schedule: Q03HX008 (ip), vehicle: saline 91 % of control | endpoint: mean survival time, dose: 3.1 grams/kg/injection, schedule: Q03HX024 (ip), vehicle: saline 110 % of control | endpoint: mean survival time, dose: 3.1 grams/kg/injection, schedule: Q04DX003 (ip), vehicle: saline 95 % of control | endpoint: mean survival time, dose: 3.1 grams/kg/injection, schedule: Q08DX002 (ip), vehicle: saline 98 % of control | endpoint: mean survival time, dose: 6.3 grams/kg/injection, schedule: Q01DX001 (ip), vehicle: saline 100 % of control | endpoint: mean survival time, dose: 6.3 grams/kg/injection, schedule: Q01DX009 (ip), vehicle: saline 97 % of control | endpoint: mean survival time, dose: 6.3 grams/kg/injection, schedule: Q04DX003 (ip), vehicle: saline 95 % of control | endpoint: mean survival time, dose: 6.3 grams/kg/injection, schedule: Q08DX002 (ip), vehicle: saline 96 % of control | endpoint: median survival time, dose: 0.5 mg/kg/injection, schedule: Q#C X009 (adlb), vehicle: water 106 % of control | endpoint: median survival time, dose: 1.0 mg/kg/injection, schedule: Q01DX019 (adlb), vehicle: water 92 % of control | endpoint: median survival time, dose: 1.0 mg/kg/injection, schedule: Q#C X009 (adlb), vehicle: water 102 % of control | endpoint: median survival time, dose: 2.0 mg/kg/injection, schedule: Q01DX019 (adlb), vehicle: water 97 % of control | endpoint: median survival time, dose: 2.0 mg/kg/injection, schedule: Q#C X009 (adlb), vehicle: water 107 % of control | endpoint: median survival time, dose: 4.0 mg/kg/injection, schedule: Q01DX019 (adlb), vehicle: water 99 % of control | endpoint: median survival time, dose: 4.0 mg/kg/injection, schedule: Q#C X009 (adlb), vehicle: water 101 % of control | endpoint: median survival time, dose: 8.0 mg/kg/injection, schedule: Q#C X009 (adlb), vehicle: water 103 % of control

CCCCN=C(NC(=S)Nc1ccc(Cl)cc1)SCC
inactive: endpoint: mean survival time, dose: 100.0 mg/kg/injection, schedule: Q04DX002 (ip), vehicle: saline with Tween-80 95 % of control | endpoint: mean survival time, dose: 200.0 mg/kg/injection, schedule: Q04DX002 (ip), vehicle: saline with Tween-80 92 % of control | endpoint: mean survival time, dose: 400.0 mg/kg/injection, schedule: Q04DX002 (ip), vehicle: saline with Tween-80 95 % of control

CC(=O)OC1CCC(NC(N)=O)CC1 (stereo unspecified)
inactive: endpoint: mean survival time, dose: 176.0 mg/kg/injection, schedule: Q01DX001 (ip), vehicle: other 102 % of control | endpoint: mean survival time, dose: 264.0 mg/kg/injection, schedule: Q01DX001 (ip), vehicle: other 120 % of control | endpoint: mean survival time, dose: 400.0 mg/kg/injection, schedule: Q01DX001 (ip), vehicle: other 97 % of control | endpoint: mean survival time, dose: 600.0 mg/kg/injection, schedule: Q01DX001 (ip), vehicle: other 105 % of control

Nc1[nH]c(=O)ncc1F
inactive: [7] 97 % of control | [4] 102 % of control | endpoint: mean survival time, dose: 100.0 mg/kg/injection, schedule: Q01DX009 (ip), vehicle: carboxymethylcellulose (CMC) 98 % of control | [8] 104 % of control | [5] 102 % of control | endpoint: mean survival time, dose: 200.0 mg/kg/injection, schedule: Q01DX009 (ip), vehicle: carboxymethylcellulose (CMC) 103 % of control | [6] 100 % of control | endpoint: mean survival time, dose: 400.0 mg/kg/injection, schedule: Q01DX009 (ip), vehicle: carboxymethylcellulose (CMC) 103 % of control | endpoint: mean survival time, dose: 800.0 mg/kg/injection, schedule: Q01DX001 (ip), vehicle: saline 102 % of control | endpoint: mean survival time, dose: 800.0 mg/kg/injection, schedule: Q01DX009 (ip), vehicle: carboxymethylcellulose (CMC) 104 % of control | endpoint: median survival time, dose: 31.2 mg/kg/injection, schedule: Q03HX024 (ip), vehicle: water 100 % of control | endpoint: median survival time, dose: 62.5 mg/kg/injection, schedule: Q03HX024 (ip), vehicle: water 100 % of control | endpoint: median survival time, dose: 125.0 mg/kg/injection, schedule: Q03HX024 (ip), vehicle: water 100 % of control | endpoint: median survival time, dose: 250.0 mg/kg/injection, schedule: Q03HX024 (ip), vehicle: water 105 % of control | endpoint: median survival time, dose: 250.0 mg/kg/injection, schedule: Q04DX003 (ip), vehicle: water 100 % of control | endpoint: median survival time, dose: 500.0 mg/kg/injection, schedule: Q04DX003 (ip), vehicle: water 100 % of control | endpoint: median survival time, dose: 1000.0 mg/kg/injection, schedule: Q04DX003 (ip), vehicle: water 100 % of control

O=C1NC(=O)C(c2ccsc2)(c2cccs2)N1 (stereo unspecified)
inactive: [7] 97 % of control | [8] 89 % of control | endpoint: mean survival time, dose: 400.0 mg/kg/injection, schedule: Q01DX001 (ip), vehicle: carboxymethylcellulose (CMC) 100 % of control
